Measurements as given in paper PMC9599641, “TNP Analogues Inhibit the Virulence Promoting IP3-4 Kinase Arg1 in the Fungal Pathogen Cryptococcus neoformans” (Biomolecules, 2022).
“Also recorded” adds a separate entry of the source. Where two headings read alike, the source gives them in different places.

Columns and labels:
HsIPMK [1] = target: T1, HsIPMK (Homo sapiens, UniProt Q8NFU5); conditions: read-out: Km for ATP, HsIPMK, cited from earlier work
CaIpk2 = CaIpk2 (Candida albicans, UniProt Q59YE9); conditions: 200 µM IP3, ATP 25–400 µM
Method: (§1) The kinetic properties of the purified recombinant enzymes were determined and compared using a Kinase-Glo® Max Luminescent Kinase Assay kit (Promega, Madison, WI, USA) in a reaction buffer consisting of 20 mM HEPES pH 6.8, 100 mM NaCl, 6 mM MgCl2, 20 µg/mL BSA, 1 mM DTT [14]. The IP3 concentration was fixed at 200 µM. The ATP starting concentrations ranged between 25 µM to 400 µM and the ATP remaining after up to 10-min reaction time was assessed by adding Kinase-Glo® reagent. An ATP standard curve (0–500 µM) was also generated using the same kit. The ATP concentration remaining was measured as luminescence using a SpectraMax iD5 plate reader. The relative luminescence unit (RLU) was converted to ATP concentration using the ATP standard curve. The reaction velocity was calculated for each starting ATP concentration and the data was fitted to the Michaelis-Menten equation using GraphPad Prism 9 to obtain Vmax and Km values.

HsIPMK [2] = target: T1, HsIPMK; conditions: 200 µM IP3, ATP 25–400 µM
Method: as §1

rat IPMK [3] = test system: rat IPMK; design: method as in PMID 24670057; conditions: read-out: Km of rat IPMK for ATP; IP3 used as the substrate; cited from earlier work
HsIPMK [4] = target: T1, HsIPMK; assay: Kinase-Glo enzyme inhibition assay, recombinant HsIPMK; further: 6 ng/µL enzyme; type: biochemical; design: GST (N, cleaved yes); made in house; host or cells: E. coli BL21 (DE3); plasmid made by GenScript
Method: (§2) The 2,6-disubstituted purine compounds are ATP-competitive IPK inhibitors. […] The amount of IP3 and kinase used for each recombinant enzyme was determined following the manufacturer’s instructions, and this concentration was used to assess the inhibitory properties of TNP analogues against each of the recombinant enzymes.
(§3) The analogues were dissolved in DMSO. For the assay, the inhibitors were added to the reaction mixture to achieve a final concentration of 50 µM in 5% DMSO (1:20 dilution). To achieve inhibitor concentrations lower than 50 µM in the assay, the inhibitor stock was first serially diluted two-fold in DMSO and added to the reaction mixture, to achieve concentrations ranging between 0.8 μM and 50 µM in 5% DMSO. Once all analogues and their dilution series had been added, the reaction was started by adding an optimal amount of recombinant IP3-4K enzyme. The reaction was stopped after 10-min incubation at room temperature by adding a 50 µL of Kinase-Glo® reagent. The mixture was incubated at room temperature in the dark for 10–15 min. Luminescence (RLU) was measured using a SpectraMax iD5 and an integration time of 0.5 s. Percent enzyme activity was defined as (RLUnegative − RLUsample)/(RLUnegative − RLUpositive) × 100. ‘Positive’ refers to 100% enzyme activity (no inhibitor used as the positive control), while ‘negative’ refers to 0% enzyme activity (no enzyme used as the negative control).
(§4) Next, we determined the inhibitory properties of TNP. TNP is an ATP-competitive inhibitor [34]. […] IP3 and enzyme concentrations were also optimised following the manufacturer’s instructions. […] This optimal amount of IP3 was then used to test varying concentrations of the kinase ranging from 0 to 20 ng/µL. The amount of kinase that produced luminescence values in the linear range of the kinase titration curve was deemed to be the optimal kinase amount.

Solubility observations = type: physicochemical; conditions: for Solubility in SPR analysis: SPR running buffer with 5% DMSO, KD could not be determined; for Solubility in enzyme assay conditions: 5% DMSO
[5] = target: CnArg1 (IP3-4K from C. neoformans) (Cryptococcus neoformans var. grubii, UniProt J9W3G0); assay: Kinase-Glo enzyme inhibition assay, recombinant CnArg1; type: biochemical; conditions: 10 µM ATP, 50 µM IP3, 2.5 ng/µL enzyme, 10 min, room temperature, 5% DMSO; mean ± SEM
Method: as §2, §3, §4

[6] = test system: CnArg1 (IP3-4K from C. neoformans); assay: as above; type: biochemical; conditions: selectivity, ratio higher than 1 = more selective for CnArg1
Method: as §2, §3, §4

human IP3K = test system: human IP3K; design: method as in PMID 12210991; conditions: read-out: IC50 against IP3K; cited from earlier work
IP6K = test system: IP6K; design: method as in PMID 19208622; conditions: read-out: IC50 against IP6K; cited from earlier work
rat IPMK [7] = test system: rat IPMK; design: method as in PMID 24670057; conditions: at a concentration of 10 µM; cited from earlier work
[8] = test system: CaIpk2 (IP3-4K from C. albicans); assay: Kinase-Glo enzyme inhibition assay, recombinant CaIpk2; type: biochemical, Candida albicans; conditions: tested up to 50 µM; 10 µM ATP, 25 µM IP3
Method: as §2
as §3, with “Percent enzyme activity was defined as (RLUnegative − RLUsample)/(RLUnegative − RLUpositive) × 100. ‘Positive’ refers to 100% enzyme activity (no inhibitor used as the positive control), while ‘negative’ refers to 0% enzyme activity (no enzyme used as the negative control).” left out
Next, we determined the inhibitory properties of TNP. […] The amount of kinase that produced luminescence values in the linear range of the kinase titration curve was deemed to be the optimal kinase amount.

Chain of CnArg1 (IP3-4K from C. neoformans) (Cryptococcus neoformans var. grubii, UniProt J9W3G0) (J9W3G0 entry or part of it): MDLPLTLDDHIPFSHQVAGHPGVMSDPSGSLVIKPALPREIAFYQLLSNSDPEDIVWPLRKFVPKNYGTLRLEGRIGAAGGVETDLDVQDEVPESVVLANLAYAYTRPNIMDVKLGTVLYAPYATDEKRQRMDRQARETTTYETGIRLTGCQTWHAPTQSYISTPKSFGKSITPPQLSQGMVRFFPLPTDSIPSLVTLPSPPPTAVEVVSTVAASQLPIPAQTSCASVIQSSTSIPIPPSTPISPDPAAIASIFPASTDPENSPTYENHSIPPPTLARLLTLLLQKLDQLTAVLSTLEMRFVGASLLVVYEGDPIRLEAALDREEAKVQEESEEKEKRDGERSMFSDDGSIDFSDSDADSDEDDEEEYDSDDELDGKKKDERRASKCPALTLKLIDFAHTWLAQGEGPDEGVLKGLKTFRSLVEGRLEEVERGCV
T1 sequence (Q8NFU5 whole entry): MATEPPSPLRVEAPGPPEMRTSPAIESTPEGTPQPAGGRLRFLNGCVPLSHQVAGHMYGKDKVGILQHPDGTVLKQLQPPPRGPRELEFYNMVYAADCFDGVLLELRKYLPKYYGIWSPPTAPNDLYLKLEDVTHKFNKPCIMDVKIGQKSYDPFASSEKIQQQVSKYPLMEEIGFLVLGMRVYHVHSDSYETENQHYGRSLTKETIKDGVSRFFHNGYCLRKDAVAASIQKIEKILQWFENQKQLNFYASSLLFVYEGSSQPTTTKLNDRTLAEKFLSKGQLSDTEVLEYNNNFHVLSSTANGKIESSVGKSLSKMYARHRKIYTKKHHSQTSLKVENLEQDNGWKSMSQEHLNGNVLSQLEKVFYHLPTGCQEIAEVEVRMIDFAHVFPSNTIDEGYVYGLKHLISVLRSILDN
Chain of CaIpk2 (Q59YE9 1-350): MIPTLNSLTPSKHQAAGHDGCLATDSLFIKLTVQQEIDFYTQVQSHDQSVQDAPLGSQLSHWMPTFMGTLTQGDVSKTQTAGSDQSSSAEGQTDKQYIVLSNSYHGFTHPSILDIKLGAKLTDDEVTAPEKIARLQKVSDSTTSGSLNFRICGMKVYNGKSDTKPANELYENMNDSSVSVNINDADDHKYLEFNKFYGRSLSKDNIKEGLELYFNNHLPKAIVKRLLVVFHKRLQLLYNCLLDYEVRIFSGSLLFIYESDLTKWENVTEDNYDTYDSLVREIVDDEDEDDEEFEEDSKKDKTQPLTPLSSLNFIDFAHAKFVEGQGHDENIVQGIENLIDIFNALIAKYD

| Structure (SMILES) | IC50 (HsIPMK [4]) [µM] | IC50 [5] [µM] | HsIPMK/CnArg1 IC50 ratio [6] | other results |
| --- | --- | --- | --- | --- |
| Nc1ncnc2c1ncn2[C@@H]1O[C@H](COP(=O)(O)OP(=O)(O)OP(=O)(O)O)[C@@H](O)[C@H]1O [ATP] |  |  |  | Km (HsIPMK [1]; IP4 used as the substrate): 10 µM; Km (HsIPMK [1]; PIP2 used as the substrate): 61 ± 6 µM; Vmax, CaIpk2 (CaIpk2): 21 ± 3 µmol ATP/mg protein/min; Vmax, HsIPMK (HsIPMK [2]): 0.6 ± 0.07 µmol ATP/mg protein/min; Km (HsIPMK [2]; read-out: Km for ATP, HsIPMK, mean ± SEM): 128 ± 35 µM; Km (rat IPMK [3]): 64 µM |
| FC(F)(F)c1cccc(CNc2nc(NCc3ccccc3)c3nc[nH]c3n2)c1 [Compound 9] | 32 ± 3 | 28 ± 7 | 1.1 | Solubility in SPR analysis (Solubility observations): Poor solubility—ND |
| FC(F)Oc1cccc(CNc2nc(NCc3ccccc3)c3nc[nH]c3n2)c1 [Compound 10] | 55 ± 2 | 20 ± 1 | 2.8 |  |
| Cc1cccc(CNc2nc(NCc3ccccc3)c3nc[nH]c3n2)c1 [Compound 11] |  |  |  | Solubility in enzyme assay conditions (Solubility observations): poorly soluble; also recorded: Low solubility—ND |
| FC(F)(F)Oc1cccc(CNc2nc(NCc3ccccc3)c3nc[nH]c3n2)c1 [Compound 12] |  | 77 ± 14 |  |  |
| COc1cccc(CNc2nc(NCc3ccccc3)c3nc[nH]c3n2)c1 [Compound 13] |  |  | 6.0 |  |
| Brc1cccc(CNc2nc(NCc3ccccc3)c3nc[nH]c3n2)c1 [Compound 14] |  | 44 ± 2 |  |  |
| NCc1cccc(CNc2nc(NCc3ccccc3)c3[nH]cnc3n2)c1 [Compound 15] |  | 46 ± 22 |  |  |
| COC(=O)c1cccc(CNc2nc(NCc3ccccc3)c3nc[nH]c3n2)c1 [Compound 16] | 48 ± 2 | 14 ± 1 | 3.4 |  |
| O=C(O)c1cccc(CNc2nc(NCc3ccccc3)c3nc[nH]c3n2)c1 [Compound 17] |  | 45 ± 3 |  |  |
| FC(F)(F)c1ccccc1CNc1nc(NCc2ccccc2)c2nc[nH]c2n1 [Compound 18] |  |  |  | Solubility in enzyme assay conditions (Solubility observations): poorly soluble; also recorded: Low solubility—ND |
| FC(F)(F)c1ccc(CNc2nc(NCc3ccccc3)c3nc[nH]c3n2)cc1 [Compound 19] |  |  |  | Solubility in enzyme assay conditions (Solubility observations): poorly soluble; also recorded: Low solubility—ND |
| FC(F)(F)Oc1ccccc1CNc1nc(NCc2ccccc2)c2nc[nH]c2n1 [Compound 20] |  | 71 ± 12 |  |  |
| FC(F)(F)Oc1ccccc1CNc1nc(NCc2ccccc2)c2nc[nH]c2n1 [Compound 21] |  | 57 ± 6 |  |  |
| FC(F)(F)Oc1ccc(CNc2nc(NCc3ccccc3)c3nc[nH]c3n2)cc1 [Compound 22] |  |  |  | CnArg1 IC50 [5]: Not inhibitory |
| Fc1ccc(CNc2nc(NCc3ccccc3)c3nc[nH]c3n2)cc1 [Compound 23] | 55 ± 4 | 21 ± 1 | 2.6 |  |
| COc1ccccc1CNc1nc(NCc2ccccc2)c2nc[nH]c2n1 [Compound 24] | 89 ± 9 | 24 ± 1 | 3.7 |  |
| c1ccc(CNc2nc(NCc3ncccn3)nc3[nH]cnc23)cc1 [Compound 25] |  |  |  | CnArg1 IC50 [5]: Not inhibitory |
| Cn1ccnc1CNc1nc(NCc2ccccc2)c2nc[nH]c2n1 [Compound 26] |  |  |  | CnArg1 IC50 [5]: Not inhibitory |
| c1ccc(CNc2nc(NCC3CCOCC3)nc3[nH]cnc23)cc1 [Compound 27] | 123 ± 80 | 35 ± 2 | 3.5 |  |

| Structure (SMILES) | IC50 (HsIPMK [4]) [µM] | IC50 [5] [µM] | HsIPMK/CnArg1 IC50 ratio [6] | other results |
| --- | --- | --- | --- | --- |
| OCCNc1nc(NCc2ccccc2)c2[nH]cnc2n1 [Compound 28] |  | 127 ± 32 |  |  |
| COCCNc1nc(NCc2ccccc2)c2nc[nH]c2n1 [Compound 29] |  | 75 ± 9 |  |  |
| COCCNc1nc(NCc2cccc(C(F)(F)F)c2)nc2[nH]cnc12 [Compound 30] |  |  | 2.4 |  |
| COCCNc1nc(NCc2cccc(Br)c2)nc2[nH]cnc12 [Compound 31] | 43 ± 4 | 29 ± 3 | 1.5 |  |
| COCCNc1nc(NCc2cccc(I)c2)nc2[nH]cnc12 [Compound 32] | 48 ± 3 | 12 ± 1 | 4.0 |  |
| COCCNc1nc(NCc2cccc(C(=O)OC)c2)nc2[nH]cnc12 [Compound 33] | 144 ± 55 | 38 ± 5 | 3.8 |  |
| COCCNc1nc(NCc2cccc(C(=O)O)c2)nc2[nH]cnc12 [Compound 34] |  |  |  | CnArg1 IC50 [5]: Not inhibitory |
| COCCNc1nc(NCc2cccnc2)nc2[nH]cnc12 [Compound 35] |  | 87 ± 9 |  |  |
| COCCNc1nc(NCc2cccc(O)c2)nc2[nH]cnc12 [Compound 36] |  | 55 ± 6 |  |  |
| COCCNc1nc(NCc2ccc(OC)cc2)nc2[nH]cnc12 [Compound 38] |  | 44 ± 6 |  |  |
| COCCNc1nc(NCCc2ccc(OC)cc2)nc2[nH]cnc12 [Compound 39] | 19 ± 1 | 22 ± 3 | 0.9 |  |
| COCCNc1nc(Nc2ccc(OC)cc2)nc2[nH]cnc12 [Compound 40] | 5 ± 1 | 14 ± 1 | 0.4 |  |
| FC(F)(F)c1cccc(CNc2nc(N3CCOCC3)c3nc[nH]c3n2)c1 [Compound 41] | 82 ± 9 | 24 ± 1 | 3.4 |  |
| FC(F)(F)c1cccc(CNc2nc(NC3CCOCC3)c3nc[nH]c3n2)c1 [Compound 42] |  |  | 3.7 |  |
| FC(F)(F)c1cccc(CNc2nc(NCc3cccnc3)c3nc[nH]c3n2)c1 [Compound 43] | 75 ± 8 | 27 ± 2 | 2.8 |  |
| COc1ccc(CNc2nc(NCc3cccc(C(F)(F)F)c3)nc3[nH]cnc23)cc1 [Compound 44] |  | 82 ± 13 |  |  |
| CC(C)n1cnc2c(NCc3ccccc3)nc(NCc3cccc(C(F)(F)F)c3)nc21 [Compound 45] |  |  |  | CnArg1 IC50 [5]: did not have any inhibitory activity |
| COCCNc1nc(NCc2cccc(Br)c2)nc2c1ncn2C [Compound 46] |  |  |  | CnArg1 IC50 [5]: did not have any inhibitory activity |
| O=[N+]([O-])c1ccc(CNc2nc(NCc3cccc(C(F)(F)F)c3)nc3[nH]cnc23)cc1 [TNP, N2-(m-trifluorobenzylamino)-N6-(p-nitrobenzylamino)purine] |  |  | 0.3 | IC50 (human IP3K): 10 µM; Solubility in SPR analysis (Solubility observations): Poor solubility—ND; IC50 (IP6K): 0.47 µM; Inhibition of rat IPMK (rat IPMK [7]): does not inhibit; Inhibition of CaIpk2 [8]: did not inhibit; also recorded: no inhibitory activity |
